The values that follow are results of earlier work, collected in patent US20110014255A1, “PHYTOSANITARY FORMULATION GENERATING NANOPARTICLES, METHOD FOR PREPARING NANOPARTICLES AND USE THEREOF” (priority 2006, published 2011).

Structures are written as SMILES. Where “and” joins values, the source holds several entries; their conditions need not be identical. Equal entries are not always repeated. Structures can show the parent of a compound that is named as a salt.

The conditions of one data set: % by weight.
Turning to `CC(Cl)Cl` [1,1-dichloroethane], the miscibility in water is 5.03%.
For the compound `CC(=O)OC(C)C` [isopropyl acetate], the miscibility in water is 2.9%.
In the case of `CC1=CC(=O)CC(C)(C)C1` [isophorone], the miscibility in water is 1.2%.
Turning to `CCCCOC(C)=O` [butyl acetate], the miscibility in water was 2.9%.
On to `CC(C)COC(=O)C(C)C` [isobutyl isobutyrate], for which the miscibility in water is recorded as 0.5%.
For `COc1ccccc1` [anisole], the miscibility in water was 1.04%.
Take `CC(=O)OCCC(C)C` [isoamyl acetate]: the miscibility in water is reported as 2%.
As to `C=CC#N` [acrylonitrile], the miscibility in water is recorded as 7.35%.
As for `CCCCOC(=O)[C@H](C)O` [(S)-n-butyl lactate], the miscibility in water is given as 4.5%.
On to `CCCCC(CC)CO` (centres unmarked) [2-ethylhexanol], for which the miscibility in water is 0.07%.
As for `O=C(OCc1ccccc1)c1ccccc1O` [benzyl salicylate], the miscibility in water is listed as 0.005%.
Regarding `ClCCl` [dichloro-methane], the miscibility in water was 1.3%.
For `CCCC(O)C(CC)CO` (centres unmarked) [2-ethyl-1,3-hexanediol], the miscibility in water is on record as 0.6%.
In the case of `CCCC#N` [butyronitrile], the miscibility in water is 3.3%.
In the case of `CCCCCCCCCCO` [decanol], the miscibility in water was 0.02%.
As for `ClCC1CO1` (centres unmarked) [epichlorohydrin], the miscibility in water is recorded as 6.58%.
`CCCCC(CC)COP(=O)(OCC(CC)CCCC)OCC(CC)CCCC` (centres unmarked) [tris(2-ethylhexyl)phosphate]: the miscibility in water is 0.1%.
Take `N#Cc1ccccc1` [benzonitrile]: the miscibility in water is 0.2%.
On to `O=Cc1ccco1` [furfuraldehyde], for which the miscibility in water is reported as 8.3%.
As for `COC(=O)c1ccccc1O` [methyl salicylate], the miscibility in water is 0.074% and 0.07%.
Turning to `CCCCCCCCN1CCCC1=O` [N-octylpyrrolidone], the miscibility in water was 0.1%.
For `CCOC(=O)c1ccccc1C(=O)OCC` [diethyl phthalate], the miscibility in water is given as 0.1%.
As for `O=C1CCCCC1` [cyclohexanone], the miscibility in water is 2.4% and 2.3%.
As for `CCCCOCCOCCO` [diethylene glycol n-butyl ether], the miscibility in water was 6.5%.
As for `CC(=O)OCc1ccccc1` [benzyl acetate], the miscibility in water is on record as 0.001%.
With `c1ccc(Oc2ccccc2)cc1` [diphenyl ether], the miscibility in water is given as 0.002%.
On to `COCOC` [dimethoxymethane], for which the miscibility in water is reported as 2.4%.
`CCCOC(C)=O` [propyl acetate]: the miscibility in water is on record as 2.3%.
Regarding `CCCCCCCC(=O)N(C)C` [N,N-dimethyloctanamide], the miscibility in water is given as 0.43%.
For the compound `COC(=O)CCCCC(=O)OC` [dimethyl adipate], the miscibility in water was 2.5%.
Regarding `OCc1ccccc1` [benzyl alcohol], the miscibility in water is 0.08%.
Take `CCC(CC)CO` [2-ethylbutanol]: the miscibility in water was 0.63%.
Take `c1ccc2ncccc2c1` [quinoline]: the miscibility in water is reported as 0.61%.
For the compound `CC(=O)c1ccccc1` [acetophenone], the miscibility in water is on record as 0.55%.
Turning to `COC(=O)c1ccccc1C(=O)OC` [dimethyl phthalate], the miscibility in water is reported as 1.84%.
With `CC(=O)CC(C)C` [methyl isobutyl ketone], the miscibility in water was 1.7%.
Take `CCCCOCCOP(=O)(OCCOCCCC)OCCOCCCC` [tributoxyethyl phosphate]: the miscibility in water was 0.11%.
In the case of `COC(=O)C(=O)OC` [dimethyl oxalate], the miscibility in water was 5%.
In the case of `CC(=O)OCC(C)C` [isobutyl acetate], the miscibility in water is reported as 0.67%.
Take `CCCCCC(C)O` (centres unmarked) [Example 2-heptanol, 2-heptanol]: the miscibility in water is 0.35%.
As for `CCCC=O` [butyraldehyde], the miscibility in water is 7.1%.
For the compound `CCCCCOC(C)=O` [N-pentyl acetate], the miscibility in water is 1%.
In the case of `CCOC(C)=O` [ethyl acetate], the miscibility in water is 8%.

Still in this data set, the particulars now being: % by weight; listed as octyl pyrrolidone.
For `CCCCCCCCN1CCCC1=O` [N-octylpyrrolidone], the miscibility in water result is “not more than 0.1%”.
